Data taken from patent publication US9624184B2, “Heterocyclic compound” (TAKEDA PHARMACEUTICAL COMPANY LIMITED, priority 2013, dated 2017).

Each molecule was assayed on 24-HC in the brain (assay: Quantification test of 24-HC in mouse brain after repeated oral administration). Details: 10 mg/kg orally once a day for 3 days; female C57BL/6N mice; brain 24-HC at 16 hours after the third administration; relative values with the control group as 100%.
Assay type: in vivo
Description: Animals used were 6-week-old female C57BL/6N mice (3 mice/group). A test compound was suspended in a 0.5% aqueous methylcellulose [133-14255 WAKO] solution (1 mg/mL). The body weight of the mice was measured, and the solution was forcibly administered orally and repeatedly once a day for 3 days. At 16 hours after the third administration, half of the brain was harvested, and the amount of 24-HC was measured.
The wet weight of the brain was measured, and the brain was homogenized with 4-fold amount of saline. This solution was used as a brain extract. The 24-HC in the brain extract was extracted with an acetonitrile solution (98% acetonitrile, 1.98% methanol, 0.02% formic acid), and quantified by HPLC. The average value of 24-HC amount was calculated and the results are shown in relative values with the control group as 100%.

Structure (SMILES) | Decreasing Rate in 10 mg/kg (%)
O=C(Nc1cc(-c2cnco2)cc(C(F)(F)F)c1)C1CC1 [Example 17, N-(3-(1,3-oxazol-5-yl)-5-(trifluoromethyl)phenyl) cyclopropanecarboxamide] | 80
O=C(C1CC1)N1CCc2c(-c3cnco3)cc(C(F)(F)F)cc21 [Example 36, cyclopropyl(4-(1,3-oxazol-5-yl)-6-(trifluoromethyl)-2,3-dihydro-1H-indol-1-yl)methanone] | 73

Same assay, conditions: 30 mg/kg orally once a day for 3 days; female C57BL/6N mice; brain 24-HC at 16 hours after the third administration; relative values with the control group as 100%

Structure (SMILES) | Decreasing Rate in 30 mg/kg (%)
O=C(C1CCOCC1)N1CCc2c(-c3cnco3)cc(C(F)(F)F)cc21 [Example 87, (4-(1,3-oxazol-5-yl)-6-(trifluoromethyl)-2,3-dihydro-1H-indol-1-yl)(tetrahydro-2H-pyran-4-yl)methanone] | 56
O[C@H]1CCN(c2cc(-c3cnco3)cc(C(F)(F)F)c2)C1 [Example 95, (3S)-1-(3-(1,3-oxazol-5-yl)-5-(trifluoromethyl)phenyl)pyrrolidin-3-ol] | 66

These molecules were tested against T1, human CH24H (Homo sapiens, UniProt Q9Y6A2) (assay: Measurement of CH24H inhibitory activity (24-HC produced from [14C] cholesterol by human CH24H lysate)). Details: 1 μM test compound, [14C] cholesterol 15 μM, 37° C. for 5 hr, read-out: Inhibitory Rate in 1 μM (%).
T1 construct: Using Full-Length Mammalian Gene Collection No. 4819975 (Invitrogen) as a template; made in house; host or cells: FreeStyle 293-F cells (transient transfection with pcDNA3.1(+)/hCH24H); cell lysate supernatant
Assay type: biochemical
Description: A plasmid DNA for expressing human CH24H in a FreeStyle 293 cell was produced as follows. Using Full-Length Mammalian Gene Collection No. 4819975 (Invitrogen) as a template, and the following two kinds of synthesized DNAs: 5′-[…]-3′ (SEQ ID NO: 1) and 5′-[…]-3′ (SEQ ID NO: 2), PCR was performed to amplify 91-1625 bp region of human CH24H (BC022539). The obtained fragment was cloned using TOPO TA Cloning Kit (Invitrogen). The obtained fragment was subcloned to pcDNA3.1(+) digested with BamHI and XhoI to give a plasmid DNA for human CH24H expression (pcDNA3.1(+)/hCH24H).
The expression of human CH24H was performed using FreeStyle 293 Expression System (Invitrogen). According to the manual attached to FreeStyle 293 Expression System and using the plasmid DNA for human CH24H expression (pcDNA3.1(+)/hCH24H) constructed in Experimental Example 1, a transient expression using FreeStyle 293-F cell was performed. After transfection, the cells were cultured at 37° C., 8% CO2 with shaking at 125 rpm for 2 days. The cells were collected by centrifugation, and suspended in a suspension buffer (100 mM potassium phosphate (pH 7.4), 0.1 mM EDTA, 1 mM DTT, 20% Glycerol). The suspended product was disrupted by a polytron homogenizer (manufactured by Kinematica), and centrifuged at 9000×g for 10 min, and the supernatant was collected. The collected supernatant was cryopreserved (−80° C.) as a human CH24H lysate standard product.
For the measurement of CH24H inhibitory activity, using the human CH24H lysate prepared in Experimental Example 2, the amount of 24-HC produced from cholesterol by catalytic activity of CH24H was measured in the presence of a test compound, and compared with that measured in the absence of the test compound. That is, a test compound solution at various concentrations was mixed with a reaction buffer (50 mM potassium phosphate containing 0.1% BSA and Complete, EDTA-free, pH 7.4) and human CH24H lysate. Then, [^14C] cholesterol (53 mCi/mmol specific activity, 15 μM) was added, and CH24H reaction was performed at 37° C. for 5 hr. After completion of the reaction, a quenching solution consisting of chloroform/methanol/distilled water (2:2:1 v/v) was added, and the resulting 24-HC was extracted by shaking. The extract was applied to silica gel thin layer chromatography (ethyl acetate:toluene=4:6), and the obtained ^14C-24HC fraction was measured with BAS2500 (Fujifilm Corporation).
The inhibitory rate (%) was calculated from the ratio of radioactivity in the presence of a test compound relative to the radioactivity in the absence of the test compound.

T1 sequence (Q9Y6A2 whole entry): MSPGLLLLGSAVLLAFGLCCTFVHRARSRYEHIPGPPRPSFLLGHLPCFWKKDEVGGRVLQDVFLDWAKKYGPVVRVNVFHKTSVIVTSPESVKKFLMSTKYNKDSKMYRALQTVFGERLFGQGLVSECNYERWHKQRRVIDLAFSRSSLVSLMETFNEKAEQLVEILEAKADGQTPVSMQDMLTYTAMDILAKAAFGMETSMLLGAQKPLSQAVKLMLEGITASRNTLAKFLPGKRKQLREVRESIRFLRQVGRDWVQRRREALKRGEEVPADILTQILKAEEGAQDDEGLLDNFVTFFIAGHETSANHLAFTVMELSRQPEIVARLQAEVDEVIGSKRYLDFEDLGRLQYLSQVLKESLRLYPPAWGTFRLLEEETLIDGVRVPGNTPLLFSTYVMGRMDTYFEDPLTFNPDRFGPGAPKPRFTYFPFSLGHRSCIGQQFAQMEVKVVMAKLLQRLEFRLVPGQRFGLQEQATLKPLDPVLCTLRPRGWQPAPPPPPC

Structure (SMILES) | inhibition at 1 µM [%]
O=C(Nc1cc(-c2cnco2)cc(C(F)(F)F)c1)c1cccc(Cl)c1 [Example 1, 3-chloro-N-(3-(1,3-oxazol-5-yl)-5-(trifluoromethyl)phenyl)benzamide] | 89
CC(C)c1cc(NS(=O)(=O)c2cccc(Cl)c2)cc(-c2cnco2)c1 [Example 4, 3-chloro-N-(3-isopropyl-5-(1,3-oxazol-5-yl)phenyl)benzenesulfonamide] | 89
O=C(Nc1cc(-c2cnco2)cc(C2CC2)c1)c1cccc(Cl)c1 [Example 5, 3-chloro-N-(3-cyclopropyl-5-(1,3-oxazol-5-yl)phenyl)benzamide] | 79
O=S(=O)(Nc1cc2c(c(-c3cnco3)c1)OCC2)c1cccc(Cl)c1 [Example 10, 3-chloro-N-(7-(1,3-oxazol-5-yl)-2,3-dihydro-1-benzofuran-5-yl)benzenesulfonamide] | 83
O=C(Nc1cc(-c2cnco2)cc(C(F)(F)F)c1)C1CC1 [Example 17, N-(3-(1,3-oxazol-5-yl)-5-(trifluoromethyl)phenyl) cyclopropanecarboxamide] | 89
O=C(Nc1cc(-c2cnco2)cc(C(F)F)c1)C1CC1 [Example 31, N-(3-(difluoromethyl)-5-(1,3-oxazol-5-yl)phenyl)cyclopropanecarboxamide] | 90
O=C(C1CC1)N1CCc2c(-c3cnco3)cc(C(F)(F)F)cc21 [Example 36, cyclopropyl(4-(1,3-oxazol-5-yl)-6-(trifluoromethyl)-2,3-dihydro-1H-indol-1-yl)methanone] | 92
O=C(Cn1ccnc1)Nc1cc(-c2cnco2)cc(C(F)(F)F)c1 [Example 43, 2-(1H-imidazol-1-yl)-N-(3-(1,3-oxazol-5-yl)-5-(trifluoromethyl)phenyl)acetamide] | 90
O=C(C1CC1)N1CCCOc2c(-c3cnco3)cc(C(F)(F)F)cc21 [Example 53, cyclopropyl(9-(1,3-oxazol-5-yl)-7-(trifluoromethyl)-3,4-dihydro-1,5-benzoxazepin-5(2H)-yl)methanone] | 52
O=C(C1CC1)N1CCOc2c(-c3cnco3)cc(C(F)(F)F)cc21 [Example 54, cyclopropyl(8-(1,3-oxazol-5-yl)-6-(trifluoromethyl)-2,3-dihydro-4H-1,4-benzoxazin-4-yl)methanone] | 92
FC(F)(F)c1cc(NCc2ccccn2)cc(-c2cnco2)c1 [Example 56, 3-(1,3-oxazol-5-yl)-N-(pyridin-2-ylmethyl)-5-(trifluoromethyl)aniline] | 88
O=C(Nc1cc2c(c(-c3cnco3)c1)OCC2)C1CC1 [Example 58, N-(7-(1,3-oxazol-5-yl)-2,3-dihydro-1-benzofuran-5-yl)cyclopropanecarboxamide] | 84

Second part, the molecule after the results:

inhibition at 1 µM [%] | Structure (SMILES)
88 | O=C(Nc1cc(C(F)(F)F)cc(-c2cnco2)n1)C1CC1 [Example 61, N-(6-(1,3-oxazol-5-yl)-4-(trifluoromethyl)pyridin-2-yl)cyclopropanecarboxamide]
91 | CC(C)C(=O)N1CCc2c(-c3cnco3)cc(C(F)(F)F)cc21 [Example 80, 2-methyl-1-(4-(1,3-oxazol-5-yl)-6-(trifluoromethyl)-2,3-dihydro-1H-indol-1-yl)propan-1-one]
92 | O=C(N1CCOCC1)N1CCc2c(-c3cnco3)cc(C(F)(F)F)cc21 [Example 83, morpholin-4-yl(4-(1,3-oxazol-5-yl)-6-(trifluoromethyl)-2,3-dihydro-1H-indol-1-yl)methanone]
97 | O=C(C1CCOCC1)N1CCc2c(-c3cnco3)cc(C(F)(F)F)cc21 [Example 87, (4-(1,3-oxazol-5-yl)-6-(trifluoromethyl)-2,3-dihydro-1H-indol-1-yl)(tetrahydro-2H-pyran-4-yl)methanone]
93 | FC1(F)CCN(c2cc(-c3cnco3)cc(C(F)(F)F)c2)CC1 [Example 89, 4,4-difluoro-1-(3-(1,3-oxazol-5-yl)-5-(trifluoromethyl)phenyl)piperidine]
89 | OC1(Cc2ccccc2)CCN(c2cc(-c3cnco3)cc(C(F)(F)F)c2)CC1 [Example 92, 4-benzyl-1-(3-(1,3-oxazol-5-yl)-5-(trifluoromethyl)phenyl)piperidin-4-ol]
96 | O[C@H]1CCN(c2cc(-c3cnco3)cc(C(F)(F)F)c2)C1 [Example 95, (3S)-1-(3-(1,3-oxazol-5-yl)-5-(trifluoromethyl)phenyl)pyrrolidin-3-ol]
91 | OC1CCN(c2cc(C(F)(F)F)cc(-c3cnco3)n2)C1 (stereo not drawn) [Example 96, 1-(6-(1,3-oxazol-5-yl)-4-(trifluoromethyl)pyridin-2-yl)pyrrolidin-3-ol]
97 | OC1CN(c2cc(-c3cnco3)cc(C(F)(F)F)c2)CCC1Cc1ccccc1 (stereo not drawn) [Example 100, 4-benzyl-1-(3-(1,3-oxazol-5-yl)-5-(trifluoromethyl)phenyl)piperidin-3-ol]
91 | CC(=O)N1CCN(c2cc(-c3cnco3)cc(C(F)(F)F)c2)CC1 [Example 107, 1-(4-(3-(1,3-oxazol-5-yl)-5-(trifluoromethyl)phenyl)piperazin-1-yl)ethanone]
95 | CS(=O)(=O)NC1CCN(c2cc(-c3cnco3)cc(C(F)(F)F)c2)C1 (stereo not drawn) [Example 119, N-(1-(3-(1,3-oxazol-5-yl)-5-(trifluoromethyl)phenyl)pyrrolidin-3-yl)methanesulfonamide]
91 | CC1(C)CCN(c2cc(-c3cnco3)cc(C(F)(F)F)c2)C1=O [Example 127, 3,3-dimethyl-1-(3-(1,3-oxazol-5-yl)-5-(trifluoromethyl)phenyl)pyrrolidin-2-one]
97 | O=C(N1CCc2c(-c3cnco3)cc(C(F)(F)F)cc21)N1C[C@@H]2C[C@H]1CO2 [Example 128, (1S,4S)-2-oxa-5-azabicyclo[2.2.1]hept-5-yl(4-(1,3-oxazol-5-yl)-6-(trifluoromethyl)-2,3-dihydro-1H-indol-1-yl)methanone]
89 | CC1(C)CCN(c2cc(C(F)(F)F)cc(-c3cnco3)n2)C1=O [Example 134, 3,3-dimethyl-1-(6-(1,3-ozazol-5-yl)-4-(trifluoromethyl)pyridin-2-yl)pyrrolidin-2-one]
